Measured values published in ChEMBL document CHEMBL4229455, “Synthesis and anticancer activity of novel bisindolylhydroxymaleimide derivatives with potent GSK-3 kinase inhibition” (Bioorg Med Chem, 2018).

Legend:
[1] = molecular target: CDK2/Cyclin A2 (Homo sapiens) (UniProt P24941+P20248); test: Inhibition of full length human CDK2/cyclin A assessed as residual activity at 10 uM using histone H1 as substrate in presence of [gamma-33P]ATP; type: protein-complex assay
NCI-H460 = test: Cytotoxicity against human NCI-H460 cells assessed as cell growth at 10 uM after 48 hrs by SRB assay relative to control; type: functional; settings: NCI-H460, 48 h, read-out: Activity
SNB-19 = test: Cytotoxicity against human SNB19 cells assessed as cell growth at 10 uM after 48 hrs by SRB assay relative to control; type: functional; settings: SNB-19, 48 h, read-out: Activity
[2] = molecular target: Cyclin-dependent kinase 5/CDK5 activator 1 (Homo sapiens) (UniProt Q00535+Q15078); test: Inhibition of recombinant full length human CDK5/p25 expressed in bacteria assessed as residual activity at 10 uM using histone H1 as substrate in presence of [gamma-33P]ATP
Chain of Cyclin-dependent kinase 5/CDK5 activator 1 (Homo sapiens) (Q00535 whole entry): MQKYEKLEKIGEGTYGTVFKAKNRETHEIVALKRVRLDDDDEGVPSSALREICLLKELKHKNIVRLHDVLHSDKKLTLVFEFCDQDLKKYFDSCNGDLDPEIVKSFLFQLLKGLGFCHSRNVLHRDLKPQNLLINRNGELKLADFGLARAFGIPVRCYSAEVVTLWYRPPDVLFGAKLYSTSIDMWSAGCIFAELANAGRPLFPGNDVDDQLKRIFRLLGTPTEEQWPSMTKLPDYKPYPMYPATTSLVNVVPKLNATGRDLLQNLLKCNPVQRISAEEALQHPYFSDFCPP
Chain of Cyclin-dependent kinase 5/CDK5 activator 1 (Homo sapiens) (Q15078 99-307 partner limits assumed): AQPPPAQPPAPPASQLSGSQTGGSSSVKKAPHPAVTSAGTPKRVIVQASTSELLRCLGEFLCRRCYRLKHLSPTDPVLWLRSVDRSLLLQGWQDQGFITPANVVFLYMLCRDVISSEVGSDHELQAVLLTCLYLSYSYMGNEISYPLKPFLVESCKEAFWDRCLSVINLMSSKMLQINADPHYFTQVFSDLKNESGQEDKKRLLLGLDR

MDA-MB-468 = test: Cytotoxicity against human MDA-MB-468 cells assessed as cell growth at 10 uM after 48 hrs by SRB assay relative to control; type: functional; settings: MDA-MB-468, 48 h, read-out: Activity
[3] = molecular target: Dual specificity tyrosine-phosphorylation-regulated kinase 1A (Rattus norvegicus) (UniProt Q63470); test: Inhibition of recombinant rat DYRK1A kinase domain expressed in bacteria assessed as residual activity at 10 uM using KKISGRLSPIMTEQ as substrate in presence of [gamma-33P]ATP
BT-549 = test: Cytotoxicity against human BT549 cells assessed as cell growth at 10 uM after 48 hrs by SRB assay relative to control; type: functional; settings: BT-549, 48 h, read-out: Activity
CCRF-CEM = test: Cytotoxicity against human CCRF-CEM cells assessed as cell growth at 10 uM after 48 hrs by SRB assay relative to control; type: functional; settings: read-out: Activity
OVCAR-5 = test: Cytotoxicity against human OVCAR5 cells assessed as cell growth at 10 uM after 48 hrs by SRB assay relative to control; type: functional; settings: OVCAR-5, 48 h, read-out: Activity
NCI-H226 = test: Cytotoxicity against human NCI-H226 cells assessed as cell growth at 10 uM after 48 hrs by SRB assay relative to control; type: functional; settings: NCI-H226, 48 h, read-out: Activity
OVCAR-3 = test: Cytotoxicity against human OVCAR3 cells assessed as cell growth at 10 uM after 48 hrs by SRB assay relative to control; type: functional; settings: OVCAR-3, 48 h, read-out: Activity
ACHN = test: Cytotoxicity against human ACHN cells assessed as cell growth at 10 uM after 48 hrs by SRB assay relative to control; type: functional; settings: read-out: Activity
PC-3 = test: Cytotoxicity against human PC3 cells assessed as cell growth at 10 uM after 48 hrs by SRB assay relative to control; type: functional; settings: PC-3, 48 h, read-out: Activity
CDK2/Cyclin A2 = CDK2/Cyclin A2 (Homo sapiens, UniProt P24941); test: Inhibition of full length human CDK2/cyclin A using histone H1 as substrate in presence of [gamma-33P]ATP; type: protein-complex assay
RXF 393 = test: Cytotoxicity against human RXF393 cells assessed as cell growth at 10 uM after 48 hrs by SRB assay relative to control; type: functional; settings: RXF 393, 48 h, read-out: Activity
SN12C = test: Cytotoxicity against human SN12C cells assessed as cell growth at 10 uM after 48 hrs by SRB assay relative to control; type: functional; settings: read-out: Activity
T47D = test: Cytotoxicity against human T47D cells assessed as cell growth at 10 uM after 48 hrs by SRB assay relative to control; type: functional; settings: read-out: Activity
786-0 = test: Cytotoxicity against human 786-O cells assessed as cell growth at 10 uM after 48 hrs by SRB assay relative to control; type: functional; settings: 786-0, 48 h, read-out: Activity
U-251 = test: Cytotoxicity against human U251 cells assessed as cell growth at 10 uM after 48 hrs by SRB assay relative to control; type: functional; settings: U-251, 48 h, read-out: Activity
Aurora kinase B = Aurora kinase B (Homo sapiens, UniProt Q96GD4); test: Inhibition of recombinant full length human aurora B expressed in baculovirus infected Sf9 insect cells assessed as residual activity at 10 uM using MBP as substrate in presence of [gamma-33P]ATP
Chain of Aurora kinase B (Q96GD4 whole entry): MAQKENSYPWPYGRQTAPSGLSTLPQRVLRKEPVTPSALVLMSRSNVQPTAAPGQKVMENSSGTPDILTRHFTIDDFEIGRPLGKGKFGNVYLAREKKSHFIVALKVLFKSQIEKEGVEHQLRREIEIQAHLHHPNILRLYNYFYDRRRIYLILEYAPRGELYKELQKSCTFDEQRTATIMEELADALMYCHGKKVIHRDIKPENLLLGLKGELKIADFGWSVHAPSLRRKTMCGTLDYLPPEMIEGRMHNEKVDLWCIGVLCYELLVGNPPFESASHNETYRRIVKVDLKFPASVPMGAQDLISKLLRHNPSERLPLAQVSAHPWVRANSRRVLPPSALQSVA

COLO 205 = test: Cytotoxicity against human COLO205 cells assessed as cell growth at 10 uM after 48 hrs by SRB assay relative to control; type: functional; settings: COLO 205, 48 h, read-out: Activity
[4] = molecular target: T1, Serine/threonine-protein kinase haspin (Homo sapiens) (UniProt Q8TF76); test: Inhibition of recombinant human haspin kinase domain expressed in bacteria assessed as residual activity at 10 uM using histone H3 (1 to 21 residues) peptide as substrate in presence of [gamma-33P]ATP
T1 sequence (whole entry): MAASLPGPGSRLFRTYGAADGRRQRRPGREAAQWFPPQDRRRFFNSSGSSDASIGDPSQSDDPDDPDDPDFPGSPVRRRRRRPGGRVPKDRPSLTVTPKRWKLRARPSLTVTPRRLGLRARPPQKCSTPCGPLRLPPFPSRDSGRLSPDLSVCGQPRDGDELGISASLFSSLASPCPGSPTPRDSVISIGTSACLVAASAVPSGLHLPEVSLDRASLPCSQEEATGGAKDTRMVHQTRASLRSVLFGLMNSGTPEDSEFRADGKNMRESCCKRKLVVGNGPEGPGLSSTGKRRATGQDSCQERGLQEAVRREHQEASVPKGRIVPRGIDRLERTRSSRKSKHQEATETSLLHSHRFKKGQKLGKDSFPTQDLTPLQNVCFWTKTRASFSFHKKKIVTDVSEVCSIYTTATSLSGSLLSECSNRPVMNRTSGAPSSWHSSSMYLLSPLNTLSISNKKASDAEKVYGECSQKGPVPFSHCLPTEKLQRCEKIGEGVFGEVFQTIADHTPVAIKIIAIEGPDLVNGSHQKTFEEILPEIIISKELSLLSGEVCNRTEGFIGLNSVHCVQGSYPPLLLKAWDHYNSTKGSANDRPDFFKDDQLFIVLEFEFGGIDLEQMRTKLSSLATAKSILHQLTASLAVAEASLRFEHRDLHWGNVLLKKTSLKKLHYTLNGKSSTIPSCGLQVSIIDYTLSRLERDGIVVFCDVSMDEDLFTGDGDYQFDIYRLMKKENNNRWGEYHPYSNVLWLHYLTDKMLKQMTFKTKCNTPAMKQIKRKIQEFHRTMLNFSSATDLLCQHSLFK

SK-MEL-5 = test: Cytotoxicity against human SK-MEL-5 cells assessed as cell growth at 10 uM after 48 hrs by SRB assay relative to control; type: functional; settings: SK-MEL-5, 48 h, read-out: Activity
SK-MEL-2 = test: Cytotoxicity against human SK-MEL-2 cells assessed as cell growth at 10 uM after 48 hrs by SRB assay relative to control; type: functional; settings: SK-MEL-2, 48 h, read-out: Activity

Compound	Activity [1] [%]	growth at 10 µM (NCI-H460) [%]	growth at 10 µM (SNB-19) [%]	Activity [2] [%]	Activity [3] [%]	growth at 10 µM (BT-549) [%]	growth at 10 µM (OVCAR-5) [%]	growth at 10 µM (NCI-H226) [%]	growth at 10 µM (OVCAR-3) [%]	growth at 10 µM (ACHN) [%]	growth at 10 µM (PC-3) [%]	IC50 (CDK2/Cyclin A2) [µM]	growth at 10 µM (RXF 393) [%]	growth at 10 µM (SN12C) [%]	growth at 10 µM (T47D) [%]	growth at 10 µM (U-251) [%]	Activity (Aurora kinase B) [%]	growth at 10 µM (COLO 205) [%]	Activity [4] [%]	growth at 10 µM (SK-MEL-5) [%]	also measured
Cn1cc(C2=C(c3cn(CCCCCC(=O)O)c4ccccc34)C(=O)N(O)C2=O)c2ccccc21	36	108	104	34	22	103	96.3	91.3	104	92.9	76.6	4	111	95.2	85.4	102	71	109	103	97.8	growth at 10 µM (MDA-MB-468): 102%; growth at 10 µM (CCRF-CEM): 84.4%; growth at 10 µM (786-0): 96.3%
CC(C)n1cc(C2=C(c3c[nH]c4ccccc34)C(=O)N(O)C2=O)c2ccccc21	71	95.3	111	71	73	99.7	105	102	92.7	99.6	99.7	> 10	100	101	86.7	100	147	98.5	123	98.5	growth at 10 µM (SK-MEL-2): 86.8%; growth at 10 µM (CCRF-CEM): 95.8%; growth at 10 µM (786-0): 77.9%
N#CCCCCCn1cc(C2=C(c3cn(CCCCCC#N)c4ccccc34)C(=O)NC2=O)c2ccccc21	36	86.8		46	9	73.6	128	80.4	72.7	87	58	2.5	62.1	87.7	67.6	83.8	83	73.8	134	78.7	growth at 10 µM (SK-MEL-2): 96.5%; growth at 10 µM (MDA-MB-468): 63.3%; growth at 10 µM (CCRF-CEM): 73.5%
CC(C)n1cc(C2=C(c3cn(C)c4ccccc34)C(=O)N(O)C2=O)c2ccccc21	23	98.3	101	34	54	93.2	90.3	77.2	87.6	88	88.4	7	89.2	95.2	87.3	98.8	95	101	127	76.2	growth at 10 µM (SK-MEL-2): 86.6%; growth at 10 µM (786-0): 86.5%
O=C1C2=C(C(=O)N1O)c1cn(c3ccccc13)CCCCCCn1cc2c2ccccc21	89	100		91	107	97.6	98.2	101	106	109	95.8	> 10	119	106	104	106	97	110	134	99.6	growth at 10 µM (SK-MEL-2): 120%; growth at 10 µM (MDA-MB-468): 97.5%; growth at 10 µM (CCRF-CEM): 99.4%
Cn1cc(C2=C(c3cn(C)c4ncccc34)C(=O)NC2=O)c2ccccc21	-3	19 to 19.5	40 to 65	-1	30		13 to 54.6		25 to 50.2	8 to 26.5	23 to 44.6	0.1		4 to 30.7	10 to 24.2	27	84	-63	101		growth at 10 µM (CCRF-CEM): 6.61 to 9%; growth at 10 µM (786-0): 12%
Cn1cc(C2=C(c3c[nH]c4ccccc34)C(=O)N(O)C2=O)c2ccccc21	77	87.4	97.5	66	46	82.7	95	76.9	84.7	77.9	78.7	> 10	86.3	97.8	60.9	98.5	79	86	112	72	growth at 10 µM (SK-MEL-2): 76.4%; growth at 10 µM (CCRF-CEM): 82.2%; growth at 10 µM (786-0): 82%
Cn1cc(C2=C(c3cn(C)c4ccccc34)C(=O)N(O)C2=O)c2ccccc21	83	99.5	102	82	81	107	105	88.7	111	101		> 10	82.8	94.5	96.4	91.4	84	104	118	92.8	growth at 10 µM (SK-MEL-2): 102%; growth at 10 µM (MDA-MB-468): 86.4%; growth at 10 µM (786-0): 103%
